Data on 37 molecules can be found in ChEMBL document CHEMBL1201862, “PubChem BioAssay data set” (2004).

Among the test systems are M19-MEL; LXFL 529; HOP-18; DMS-114; RXF 631; MDA-N; T47D; MDA-MB-231; BT-549.
Holding throughout (assay): NCI-60 cell line screen, 48 h

Molecules are shown by their SMILES.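 These data come from cells grown in 96-well plates and exposed to compound for 48 hours at five concentrations. GI50 is the concentration that inhibits growth by half.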 Active and inactive are the calls of the source. Cut-off read from the data, not from the text of the source: active = GI50 up to about 1.1 µM and inactive = higher.

As for `CC1=CC2=C(C)C3(CC3)[C@@](C)(O)C(=O)C2=C1`, the GI50 with M19-MEL is 0.254 µM (active); in the test with LXFL 529 it was 0.223 µM (active); with HOP-18, 0.27 µM (active); in the test with DMS-114, 0.139 µM (active).

Consider `COc1cc(/C=C(\C)c2ccc3c(c2)OCO3)cc(OC)c1OC`, for which the GI50 in the test on M19-MEL is 31.4 µM (inactive); with LXFL 529, 14.7 µM (inactive); in the test on RXF 631 it was 28.6 µM (inactive); in the test on HOP-18 it was 64 µM (inactive); with DMS-114, 25.1 µM (inactive).

On to `CC(=O)OCC1OC(n2cc(F)c(=O)[nH]c2=O)C(OC(C)=O)C1OC(C)=O` (configuration not stated), for which the GI50 in the test with MDA-N is 11.5 µM (inactive); in the test with T47D, 19.2 µM (inactive); with M19-MEL, 4.07 µM (inactive); in the test on MDA-MB-231, 34.6 µM (inactive); in the test with LXFL 529, 4.31 µM (inactive); in the test with RXF 631, 15.5 µM (inactive). Also, the GI50 with HOP-18 was 38 µM (inactive); with BT-549, 68.5 µM (inactive); with DMS-114, 39.8 µM (inactive).

`COC1=C(N)C(=O)c2nc(C)ccc2C1=O`: the GI50 in the test on M19-MEL was 0.308 µM (active); in the test on LXFL 529 it was 2.43 µM (inactive); in the test with HOP-18, 1.98 µM (inactive); in the test with DMS-114, 1.78 µM (inactive).

As for `Cn1c2c(c3ccccc31)CCN(CCCCN1CCN(c3ccccc3)CC1)C2=O`, the GI50 in the test on MDA-N was 21.6 µM (inactive); in the test with T47D, 3.86 µM (inactive); in the test on M19-MEL it was 43.6 µM (inactive); in the test with MDA-MB-231, > 10 µM (inactive); in the test on LXFL 529, 33.9 µM (inactive); with RXF 631 it was 9.66 µM (inactive). Also, the results for the GI50 in the test on HOP-18, with BT-549 and with DMS-114 were > 31.6 µM (inactive), 6.58 µM (inactive) and 22.1 µM (inactive), respectively.

Turning to `CN(C)CCNC(=O)c1cccc2ccc(-c3ccc(Br)cc3)nc12`, the values for the GI50 with M19-MEL, with HOP-18 and in the test with DMS-114 were 2.24 µM (inactive), 1.91 µM (inactive) and 2.61 µM (inactive), respectively.

Take `Cc1c(-c2ccccc2)[nH]c2cc(Cl)ccc2c1=O`: the GI50 in the test with MDA-N was 10.2 µM (inactive); in the test on T47D, > 100 µM (inactive); in the test on MDA-MB-231 it was 70.8 µM (inactive); in the test on BT-549, > 100 µM (inactive).

As for `O=C1OC2C(O)COC2(O)C1(O)Cc1c[nH]c2ccccc12.O=C1OC2C(O)COC2(OCc2c[nH]c3ccccc23)C1O` (configuration not stated), the GI50 in the test with M19-MEL, in the test on LXFL 529, in the test with HOP-18 and in the test with DMS-114 was > 100 µM (inactive) in each case.

On to `O=C(O)COc1ccc(C(=O)/C(SS/C(C(=O)c2ccc(OCC(=O)O)c(Cl)c2Cl)=C2\C=C(c3ccccc3Cl)SS2)=C2/C=C(c3ccccc3Cl)SS2)c(Cl)c1Cl`, for which the GI50 in the test with M19-MEL is 28.5 µM (inactive); in the test on LXFL 529, 5.5 µM (inactive); with RXF 631, 25.5 µM (inactive); in the test on HOP-18, 24.1 µM (inactive); in the test on DMS-114, 9.73 µM (inactive).

With `CC1=C2C=CC(=O)C[C@@]2(C)CCC1`, the GI50 in the test on M19-MEL, with LXFL 529, in the test with RXF 631 and with DMS-114 was > 100 µM (inactive) in each case.

`CCc1cccc(C)c1NC(=O)CC1C(=O)Nc2ccccc2S1(=O)=O` (configuration not stated): the GI50 was 15.5 µM (inactive) with M19-MEL, 16.7 µM (inactive) in the test with LXFL 529, 14.2 µM (inactive) in the test on RXF 631 and 16.8 µM (inactive) in the test on DMS-114.

As to `CC(=O)OC1(C#N)CC2OC1C1C2N=NN1C(=O)OC(C)(C)C` (configuration not stated), the GI50 in the test with M19-MEL is 16.5 µM (inactive); in the test with LXFL 529, 33 µM (inactive); in the test on RXF 631 it was 50.6 µM (inactive); with HOP-18, > 100 µM (inactive); in the test with DMS-114, 23.2 µM (inactive).

For the molecule `COC(=O)CCC(NC(=S)N/N=C(\C)c1cccs1)C(=O)OC` (configuration not stated), the GI50 in the test on M19-MEL, in the test with LXFL 529, in the test on HOP-18 and in the test on DMS-114 was > 100 µM (inactive) each time.

In the case of `Cc1nc2ccccc2c(=O)n1/N=C(\N=N\c1ccccc1Cl)c1ccccc1Cl`, the GI50 with M19-MEL is > 100 µM (inactive); in the test with LXFL 529, 52.1 µM (inactive); with RXF 631 it was 88.9 µM (inactive); in the test on HOP-18, 28 µM (inactive); with DMS-114, 26.4 µM (inactive).

For `Cc1nc2c(s/c(=N\N)n2-c2ccccc2)c(=O)[nH]1`, the GI50 in the test on M19-MEL, with LXFL 529 and in the test with DMS-114 was > 100 µM (inactive) each time.

With `CCCN1CN(C(C(=O)N[C@@H]2C(=O)N3C(C(=O)O)=C(C)CSC23)c2ccccc2)CSC1=S` (some centres not stated), the GI50 in the test on M19-MEL, in the test with LXFL 529 and with HOP-18 was > 100 µM (inactive) throughout.

As for `Cc1ccc(CN2CCN(Cc3ccc(C)o3)C(C)C2)o1` (configuration not stated), the GI50 in the test with MDA-N, with T47D, in the test with MDA-MB-231 and in the test with BT-549 was > 100 µM (inactive) throughout.

Turning to `CCCCC(C)/C=C/C(O)=C1\C(=O)O/C(=C\C(=O)O)C1=O` (configuration not stated), the GI50 in the test with LXFL 529, in the test with RXF 631, with HOP-18 and in the test on DMS-114 was > 100 µM (inactive) in each case.

In the case of `O=C(NO)C(=O)Nc1ccc(Cl)cc1[N+](=O)[O-]`, the GI50 in the test with M19-MEL, with LXFL 529, in the test with RXF 631, in the test with HOP-18 and with DMS-114 was > 100 µM (inactive) throughout.

As to `O=C(O)COc1ccc(C(=O)/C(SS/C(C(=O)c2ccc(OCC(=O)O)c(Cl)c2Cl)=C2\C=C(c3ccc(Br)cc3)SS2)=C2/C=C(c3ccc(Br)cc3)SS2)c(Cl)c1Cl`, the GI50 in the test on T47D is 2.3 µM (inactive); with M19-MEL, 5.45 µM (inactive); in the test on LXFL 529 it was 1.29 µM (inactive); with HOP-18 it was 5.48 µM (inactive); in the test with BT-549, 8.13 µM (inactive); with DMS-114, 1.05 µM (active).

Regarding `COc1ccc(C2COc3c(ccc(O)c3C)C2)cc1OC` (configuration not stated), the GI50 with M19-MEL was 83 µM (inactive); with HOP-18, 24.2 µM (inactive); in the test on DMS-114, 24.4 µM (inactive).

Regarding `CC(C)(O)[C@H](CCO)O[Si](c1ccccc1)(c1ccccc1)C(C)(C)C`, the results for the GI50 with M19-MEL, in the test on LXFL 529 and with HOP-18 were 14.9 µM (inactive), 11.6 µM (inactive) and 3.1 µM (inactive), respectively.

For `COc1ccc2[nH]c3c(C)c4cc[n+](COC(=O)c5ccccc5)cc4c(C)c3c2c1`, the GI50 is 0.381 µM (active) with M19-MEL; 0.148 µM (active) with LXFL 529; 0.165 µM (active) in the test with RXF 631; 0.0198 µM (active) in the test on HOP-18; 0.279 µM (active) with DMS-114.

Turning to `CCOc1ccc(NC(=O)C(=O)CC(=O)c2c[n+]([O-])c3cc(C)c(C)cc3[n+]2[O-])cc1`, the GI50 in the test on M19-MEL, with LXFL 529, in the test with RXF 631, in the test on HOP-18 and in the test with DMS-114 was > 100 µM (inactive) each time.

Take `O=c1c2ccccc2nc(-c2ccccc2)n1NC(=S)Nc1ccccc1`: the GI50 is 94.4 µM (inactive) with M19-MEL, 81.8 µM (inactive) with LXFL 529, > 100 µM (inactive) in the test with HOP-18 and 14.3 µM (inactive) in the test on DMS-114.

As for `O=c1c2ccccc2nc(-c2ccccc2Cl)n1NCC1(O)OCC(O)C(O)C1O` (configuration not stated), the GI50 in the test on M19-MEL, in the test with LXFL 529, in the test on RXF 631 and in the test on DMS-114 was > 100 µM (inactive) each time.

In the case of `Cn1c(=O)n(C2(C)C[Se]C2)c2ccccc21`, the GI50 with M19-MEL and in the test with LXFL 529 was > 100 µM (inactive) each time.

As to `Cc1cc2oc(-c3ccccc3)c(C)c(=O)c2c2c1OC(C)(C)S2`, the GI50 was > 100 µM (inactive) in the test on M19-MEL; > 100 µM (inactive) in the test with LXFL 529; > 100 µM (inactive) in the test on RXF 631; > 100 µM (inactive) in the test on HOP-18; 83.9 µM (inactive) in the test with DMS-114.

For `COc1ccc(Nc2nc(C#N)c(N)s2)cc1`, the GI50 was 31.9 µM (inactive) with LXFL 529 and 35.9 µM (inactive) with RXF 631.

As for `O=C(O)NC(c1ccccc1)C(NC(=O)c1ccccc1)c1ccccc1` (configuration not stated), the GI50 with M19-MEL, with HOP-18 and with DMS-114 was > 100 µM (inactive) throughout.

As for `CC1=NNC(=O)C2CCC(=O)N12` (configuration not stated), the GI50 in the test with M19-MEL, in the test on LXFL 529, with RXF 631, in the test on HOP-18 and in the test on DMS-114 was > 100 µM (inactive) each time.

Turning to `CC(C)(C)Sc1nnc(SC(C)(C)C)c2c(SC(C)(C)C)nnc(O)c12`, the GI50 with M19-MEL was 4.37 µM (inactive); in the test with LXFL 529, 10.6 µM (inactive); in the test with RXF 631, 3.2 µM (inactive); in the test with DMS-114, 4.31 µM (inactive).

Turning to `OC12c3ccccc3C1CCCCCCCCCC21OCCO1` (configuration not stated), the GI50 in the test with M19-MEL, in the test with LXFL 529, in the test with HOP-18 and in the test on DMS-114 was > 100 µM (inactive) throughout.

Take `CCOC(=O)C(C(=O)OCC)P(=S)(S)c1ccccc1` (configuration not stated): the GI50 with M19-MEL, in the test with LXFL 529, with RXF 631 and in the test with DMS-114 was > 100 µM (inactive) each time.

As to `C=C1C(=O)O[C@@H]2OC3(C)CCC4C(C)CCC1C42OO3` (some centres not stated), the GI50 is 3.49 µM (inactive) in the test on M19-MEL and 16.5 µM (inactive) with HOP-18.

Turning to `Nc1ccccc1NC(=O)c1ccc(CNC(=O)OCc2cccnc2)cc1` [ENTINOSTAT], the GI50 in the test with MDA-N was 0.778 µM (active); with T47D, 0.708 µM (active); in the test on MDA-MB-231, 2.1 µM (inactive); in the test on BT-549, 3.5 µM (inactive).

With `CC1CC(C)(O)CC(C(O)CC2CC(=O)NC(=O)C2)C1=O` (configuration not stated) [RESACTIN A], the GI50 was 0.0372 µM (active) in the test on MDA-N, 0.0431 µM (active) with T47D, < 0.01 µM (active) in the test with MDA-MB-231 and 0.113 µM (active) in the test on BT-549.
